# According to patent publication US20250034089A1, “TETRAHYDROCARBAZOLE COMPOUND, AND PHARMACEUTICAL COMPOSITION AND USE THEREOF” (NAIN BIOTECH (HANGZHOU) CO., LTD., priority 2021, published 2025):
# How the values were obtained:
# [1] = tested on: JAK1/2-STAT3 signaling pathway; assay: Inhibitory effect on JAK/STAT signaling pathway biomarkers in HeLa cells (Western blot); assay type: cell-based, human; details: HeLa 3A11, 1, 10, 100 μM, 72 hours, FIG. 4
# Experimental: • 1) Cell source: HeLa cell line 3A11 with endogenous high expression of OCT4, prepared by the inventor's laboratory. • 2) Cell culture and passage: The cell culture and passage method is the same as that described in “The inhibitory effect of compounds on the OCT4 protein in tumor stem cells (CSC)”. • 3) Cell dosing treatment: The above-mentioned HeLa cells were digested, counted, and inoculated into each well of the 96 well cell culture plate (#3988, Corning) at a density of 5000 cells/200 μl culture medium. They were cultured in a cell culture incubator at 37° C. and 5% CO2 for 24 hours to allow the cells to fully adherent to the wall. Then, the original culture medium was replaced with complete culture medium containing 1 μM, 10 μM, and 100 μM KZT compounds or AH057 (each compound at each concentration with 3 repeated wells) as well as DMSO (#D5879, Sigma Aldrich) solvent control, and they are cultured for additional 72 hours. • 4) Preparation of test samples: The preparation of test samples method is the same as that described in “The inhibitory effect of compounds on the OCT4 protein in tumor stem cells (CSC)”. • 5) Detection of JAK/STAT signaling pathway biomarker: HeLa cells have been reported to continuously activate JAK1/2 and further activate STAT3 through the IL-6 autocrine pathway. […]
# tumor microspheres = assay: Generation of tumor microspheres by tumor cells (HeLa, Caski, Hep3B, Huh7); assay type: cell-based, human; details: 1 or 10 μM, 48 hours, FIG. 5
# Experimental: • 1) Cell sources: cervical cancer cells HeLa and Caski, liver cancer cells Hep3B and Huh7 were all purchased from the Chinese Academy of Sciences cell bank (Shanghai). • 2) Tumor microsphere culture: The specific culture method for tumor microspheres can be found in the literature (Cheng J et al. Tryptophan derivatives regulate the transfer of Oct4 in stem-like cancer cells. Nat Commun. 2015, 6:7209). Each tumor cell was cultured separately in a medium containing 2% B27, 10 ng/ml BFGF, 5 ng/ml EGF, and 10 ng/ml LIF to form CSC rich tumor microspheres. • 3) Cell dosing treatment: HeLa cell lines and Huh7 cell lines were inoculated in a 6-well plate containing the aforementioned culture medium at a density of 200 cells per well, while Hep3B cell lines and Caski cell lines were inoculated in a 6-well plate containing the aforementioned culture medium at a density of 2000 cells per well. KZT-A5 or AH057 at concentrations of 1 μM or 10 μM was added, and the morphology of tumor microspheres was observed, photographed and recorded after 48 hours of treatment.
# [2] = tested on: CaSki (human cervical cancer intestinal metastatic cells); assay: In vitro proliferation inhibition (CCK-8), CaSki; assay type: cell-based; details: Ca-Ski, 72 hours, CCK-8, average of three wells in one test
# Excerpt: (§1) • 1) Cell sources: HeLa (human cervical cancer cells), CaSki (human cervical cancer intestinal metastasis cells), Huh7 (human liver cancer cells), HepG2 (human liver cancer cells), Hep3B (human liver cancer cells) were purchased from the Chinese Academy of Sciences cell bank (Shanghai); LO2 (human normal liver cells) and HcerEpic (human normal uterine epithelial cells) were from ATCC. • 2) Cell culture and passage: The cell culture and passage method is the same as that described in “The inhibitory effect of compounds on the OCT4 protein in tumor stem cells (CSC)”. • 3) Cell dosing treatment: The each type of cells mentioned above was digested, counted, and inoculated in each well of the 96 well cell culture plate (#3988, Corning) at a density of 5000 cells/200 μl culture medium. […] Then, the original culture medium was replaced with complete culture medium containing gradient diluted KZT-A5 (each concentration with 3 repeated wells) as well as DMSO (#D5879, Sigma Aldrich) solvent control, and they are cultured for additional 72 hours. • 4) Pharmacodynamic test and statistics: First, the morphology of cells treated with the above compounds was observed, photographed and recorded using an inverted phase contrast microscope (X71, Olympus). […] Then the OD450 nm absorbance value (OD value) was measured on a multifunctional enzyme-linked immunosorbent assay (168-1130, Bio Rad). […]
# [3] = tested on: Huh7 (human liver cancer cells); assay: In vitro proliferation inhibition (CCK-8), Huh7; assay type: cell-based
# Excerpt: • 1) Cell sources: HeLa (human cervical cancer cells), CaSki (human cervical cancer intestinal metastasis cells), Huh7 (human liver cancer cells), HepG2 (human liver cancer cells), Hep3B (human liver cancer cells) were purchased from the Chinese Academy of Sciences cell bank (Shanghai); LO2 (human normal liver cells) and HcerEpic (human normal uterine epithelial cells) were from ATCC. • 2) Cell culture and passage: The cell culture and passage method is the same as that described in “The inhibitory effect of compounds on the OCT4 protein in tumor stem cells (CSC)”. • 3) Cell dosing treatment: The each type of cells mentioned above was digested, counted, and inoculated in each well of the 96 well cell culture plate (#3988, Corning) at a density of 5000 cells/200 μl culture medium. They were cultured in a cell culture incubator at 37° C. and 5% CO2 for 24 hours to allow the cells to fully adherent to the wall. Then, the original culture medium was replaced with complete culture medium containing gradient diluted KZT-A5 (each concentration with 3 repeated wells) as well as DMSO (#D5879, Sigma Aldrich) solvent control, and they are cultured for additional 72 hours. • 4) Pharmacodynamic test and statistics: First, the morphology of cells treated with the above compounds was observed, photographed and recorded using an inverted phase contrast microscope (X71, Olympus). Then the original culture medium was replaced with phenol red free culture medium containing CCK-8 detection reagent (#E606335, Shanghai Shenggong) respectively, and they are cultured in the incubator for additional 2 hours. Then the OD450 nm absorbance value (OD value) was measured on a multifunctional enzyme-linked immunosorbent assay (168-1130, Bio Rad). After the cells were treated with the test compound, the equations for calculating the cell survival rate or cell growth rate is: survival rate=GD value of the treated group/OD value of the control group×100%; the equations for calculating the growth inhibition rate of compounds on cell proliferation is: inhibition rate=(OD value of control group−OD value of the treated group)/OD value of control group×100%. Further, the IC50 of each compound was calculated in SPSS based on the inhibition rate.
# • 1) Cell sources: Huh7 (human liver cancer cells), HepG2 (human liver cancer cells), Hep3B (human liver cancer cells), and HeLa (human cervical cancer cells) were all purchased from the Chinese Academy of Sciences cell bank (Shanghai), while LO2 (human normal liver cells) was obtained from ATCC. • 2) Cell culture and passage: The cell culture and passage method is the same as that described in “The inhibitory effect of compounds on human tumor cell lines from different tissue sources (1)”. • 3) Cell dosing treatment: The cell dosing treatment method is the same as that described in “The inhibitory effect of compounds on human tumor cell lines from different tissue sources (1). • 4) Pharmacodynamic test and statistics: The pharmacodynamic test and statistics method is the same as that described in “The inhibitory effect of compounds on human tumor cell lines from different tissue sources (1)”. The IC50 value data of the compound on each type of tumor cells is the average±standard deviation of three wells in one test.
# [4] = tested on: Hep3B (human liver cancer cells); assay: In vitro proliferation inhibition (CCK-8), Hep3B; assay type: cell-based; details: for IC50: Homo sapiens
# Excerpt: • 1) Cell sources: HeLa (human cervical cancer cells), CaSki (human cervical cancer intestinal metastasis cells), Huh7 (human liver cancer cells), HepG2 (human liver cancer cells), Hep3B (human liver cancer cells) were purchased from the Chinese Academy of Sciences cell bank (Shanghai); LO2 (human normal liver cells) and HcerEpic (human normal uterine epithelial cells) were from ATCC. • 2) Cell culture and passage: The cell culture and passage method is the same as that described in “The inhibitory effect of compounds on the OCT4 protein in tumor stem cells (CSC)”. • 3) Cell dosing treatment: The each type of cells mentioned above was digested, counted, and inoculated in each well of the 96 well cell culture plate (#3988, Corning) at a density of 5000 cells/200 μl culture medium. They were cultured in a cell culture incubator at 37° C. and 5% CO2 for 24 hours to allow the cells to fully adherent to the wall. Then, the original culture medium was replaced with complete culture medium containing gradient diluted KZT-A5 (each concentration with 3 repeated wells) as well as DMSO (#D5879, Sigma Aldrich) solvent control, and they are cultured for additional 72 hours. • 4) Pharmacodynamic test and statistics: First, the morphology of cells treated with the above compounds was observed, photographed and recorded using an inverted phase contrast microscope (X71, Olympus). Then the original culture medium was replaced with phenol red free culture medium containing CCK-8 detection reagent (#E606335, Shanghai Shenggong) respectively, and they are cultured in the incubator for additional 2 hours. Then the OD450 nm absorbance value (OD value) was measured on a multifunctional enzyme-linked immunosorbent assay (168-1130, Bio Rad). After the cells were treated with the test compound, the equations for calculating the cell survival rate or cell growth rate is: survival rate=GD value of the treated group/OD value of the control group×100%; the equations for calculating the growth inhibition rate of compounds on cell proliferation is: inhibition rate=(OD value of control group−OD value of the treated group)/OD value of control group×100%. Further, the IC50 of each compound was calculated in SPSS based on the inhibition rate. […]
# [5] = tested on: HcerEpic (human normal uterine epithelial cells); assay: In vitro proliferation inhibition (CCK-8), HcerEpic; assay type: cell-based; details: Epithelial cell, 72 hours, CCK-8, average of three wells in one test
# Excerpt: as §1
compound,measurement,setting,value
COc1cc(/C=C2\CCc3c([nH]c4ccc(C)cc34)C2=O)ccc1O [KZT-A5],inhibition of activation of JAK1/2-STAT3 signaling pathway,[1],effectively inhibit the activation of the JAK1/2-STAT3 signaling pathway in a dose-dependent manner
same,inhibition of generation of tumor microspheres,tumor microspheres,dose-dependently inhibit the generation of tumor microspheres
same,IC50,[2],6.38 µM
same,IC50,"[3]; Homo sapiens, Huh-7, 72 h, Huh7, 72 hours, CCK-8, average of three wells in one test",< 1 µM
same,IC50,"[3]; Homo sapiens, Huh-7, Huh7, test (2), average±standard deviation of three wells",1.42 ± 0.12 µM
same,IC50,"[3]; Huh7, 72 hours, CCK-8, average of three wells in one test",0.8 µM
same,inhibitory effect on viability compared with AH057,"[3]; Huh7, FIG. 6",more significant inhibitory effect
same,IC50,"[4]; 72 hours, CCK-8, average of three wells in one test",36.6 µM
same,IC50,"[4]; test (2), average±standard deviation of three wells",23.5 ± 1.51 µM
same,inhibitory effect compared with AH057,[4]; Table 3,comparable to AH057
same,IC50,[5],> 100 µM
